According to patent publication US6169065A, “Method for the activity of an enzyme” (Lever Brothers Company division of Conopco Company, priority 1997, dated 2001):

Tests used:
Type in all cases: biochemical
[1] = target: T1, Arthromyces ramosus peroxidase (Arthromyces ramosus, UniProt P28313); assay: Oxidation (bleaching) of Direct Red 80 by peroxidase plus enhancer; details: pH 9, 30 min
T1 construct: purchased Sigma P4794
T1 sequence (P28313 21-364): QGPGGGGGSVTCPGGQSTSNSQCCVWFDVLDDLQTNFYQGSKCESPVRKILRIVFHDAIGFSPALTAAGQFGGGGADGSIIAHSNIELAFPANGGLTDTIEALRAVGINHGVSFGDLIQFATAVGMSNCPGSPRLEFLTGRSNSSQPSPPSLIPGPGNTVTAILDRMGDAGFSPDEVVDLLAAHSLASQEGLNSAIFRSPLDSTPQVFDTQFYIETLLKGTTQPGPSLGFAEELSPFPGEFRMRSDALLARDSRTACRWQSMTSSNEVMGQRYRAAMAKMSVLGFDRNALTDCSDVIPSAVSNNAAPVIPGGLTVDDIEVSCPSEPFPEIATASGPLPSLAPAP
Procedure: The reagents are added, using a pipette, in the following order, to a 1-cm cuvette: aqueous carbonate buffer pH 9 (20 mM), DR80 (60 μM), enhancer (various concentrations) and peroxidase enzyme (Arthromyces ramosus peroxidase from Sigma, P4794); 60 units/ml). The reaction was carried out for 30 minutes at room temperature. The difference in absorbance between t=0 and t=30 min (Δ Abs in Table) is a measure of the enhancing activity of the system tested.
(§1) Examples 3-7 were repeated using 2-azaPTP, 4-azaPTP and PTP.

[2] = target: T2, laccase (Polyporus pinsitus) (Trametes villosa, UniProt Q99044); assay: Oxidation of Direct Green 26 by laccase plus enhancer; details: 25° C., laccase 30 u/ml, enhancer 67 μM
T2 sequence (Q99044 22-520): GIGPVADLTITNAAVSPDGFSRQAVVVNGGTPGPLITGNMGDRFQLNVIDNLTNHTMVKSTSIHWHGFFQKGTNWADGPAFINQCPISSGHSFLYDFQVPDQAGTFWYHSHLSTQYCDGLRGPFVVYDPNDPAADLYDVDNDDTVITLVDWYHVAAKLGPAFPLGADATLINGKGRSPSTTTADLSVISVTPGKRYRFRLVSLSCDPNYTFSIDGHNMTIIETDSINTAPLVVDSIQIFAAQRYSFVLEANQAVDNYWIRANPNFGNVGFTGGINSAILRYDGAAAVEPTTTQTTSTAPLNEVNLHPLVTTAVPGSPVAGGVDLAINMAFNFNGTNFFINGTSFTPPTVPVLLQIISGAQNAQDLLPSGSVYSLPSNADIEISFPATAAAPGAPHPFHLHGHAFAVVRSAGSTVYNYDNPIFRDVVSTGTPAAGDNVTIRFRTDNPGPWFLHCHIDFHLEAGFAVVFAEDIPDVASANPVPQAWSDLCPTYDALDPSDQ
Procedure: The oxidation of Direct Green 26 (DG26) is monitored at 605 nm in a spectrophotometer. The reagents are added, using a pipette, in the following order, to a 1-cm cuvette: aqueous tris buffer pH 9 (20 mM) or sodium phosphate buffer pH 6.0 (20 mM), DG26 (67 μM), enhancer (67 μM), and laccase (Polyporus pinsitus, 30 units/ml). The reaction was carried for 3 hours at room temperature. The difference in absorbance between […] and t=3 h is a measure of the enhancing activity of the system tested. DG26 [605 nm]: 25° C., pH 6.0 and 9.0, 3 h. Laccase [30 u/ml], DG26 [67 μM], Enhancers [67 μM]. The values listed are the decrease in absorbance at 605 nm after 3 h.

[3] = target: T2, laccase (Polyporus pinsitus); assay: Oxidation of Reactive Black 5 by laccase plus enhancer; details: for decrease in absorbance after 3 h: 25 C, laccase 30 u/ml, enhancer 67 μM
Procedure: The laccase activity is measured on a spectrophotometer with 2 mM ABTS in 20 mM sodium phosphate buffer pH 6.0 at 25° C. The oxidation of Reactive Black 5 (RB5) is monitored at 575 nm. The reagents are added, using a pipette, in the following order, to a 1-cm cuvette: aqueous tris buffer pH 9 (20 mM) or sodium phosphate buffer pH 6.0 (20 mM), RB5 (67 μM), enhancer (67 μM), and laccase (Polyporus pinsitus, 30 units/ml). The reaction was carried for 3 hours at room temperature. The difference in absorbance between t=0 and t=3 hours is a measure of the enhancing activity of the system tested. RB5 [575 nm]: 25 C, pH 6.0 and 9.0, 3 h. Laccase [30 u/ml], RB5 [67 μM], Enhancers [67 μM]. The values listed are the decrease in absorbance at […] after 3 h.

[4] = target: T1, Arthromyces ramosus peroxidase; assay: Oxidation (bleaching) of Reactive Black 5 by peroxidase plus enhancer; details: for % bleaching / ΔAbs: 590 nm, 25° C., pH 9, 30 min
Procedure: The oxidation of Reactive Black 5 (RB5) is monitored at 590 nm in a spectrophotometer. […] The reaction was carried out for 30 minutes at room temperature. The difference in absorbance between t=0 and t=30 min (Δ Abs in Table) is a measure of the enhancing activity of the system tested.
ARP [6 u/ml], H2 O2 [250 μM], RB5 [60 μM], Enhancers [100 μM]
as §1

[5] = target: T1, Arthromyces ramosus peroxidase; assay: Oxidation (bleaching) of Direct Green 26 by peroxidase plus enhancer; details: 25° C., pH 9, 30 min
Procedure: The oxidation of Direct Green 26 (DG26) is monitored at 610 nm in a spectrophotometer. […] The reaction was carried out for 30 minutes at room temperature. The difference in absorbance between t=0 and t=30 min (Δ Abs in Table) is a measure of the enhancing activity of the system tested.
as §1

[6] = DR80 60 μM, 500 nm, 25C, ARP 60 u/ml, H2O2 250 μM, enhancer 100 μM
[7] = DR80 60 μM, 500 nm, 25° C., ARP 60 u/ml, H2O2 250 μM, enhancer 10 μM
[8] = DR80 60 μM, 500 nm, 25° C., ARP 60 u/ml, H2O2 250 μM, enhancer 25 μM
[9] = DR80 60 μM, 500 nm, 25° C., ARP 60 u/ml, H2O2 250 μM, enhancer 50 μM
[10] = Example 8: DR80, 530 nm, 25° C., ARP 10 u/ml, H2O2 100 μM, dye 60 μM, enhancer 100 μM
[11] = Example 8: DR80, 530 nm, 25° C., ARP 10 u/ml, H2O2 100 μM, dye 60 μM, enhancer 200 μM
[12] = Example 8: RB5 60 μM, ARP 10 u/ml, H2O2 100 μM, enhancer 200 μM
[13] = RB5 60 μM, ARP 6 u/ml, H2O2 250 μM, enhancer 100 μM
[14] = DG26 60 μM, 610 nm, ARP 60 u/ml, H2O2 250 μM, enhancer 100 μM
[15] = Example 8: DG26, 610 nm, ARP 10 u/ml, H2O2 100 μM, dye 60 μM, enhancer 200 μM

% bleaching [1, 6] [%]	ΔAbs [1, 6]	% bleaching [1, 7] [%]	ΔAbs [1, 7]	% bleaching [1, 8] [%]	ΔAbs [1, 8]	% bleaching [1, 9] [%]	ΔAbs [1, 9]	% bleaching [1, 10] [%]	% bleaching [1, 11] [%]	decrease in absorbance at 605 nm after 3 h ([2]; pH 6.0, DG26 67 μM)	decrease in absorbance at 605 nm after 3 h ([2]; pH 9.0, DG26 67 μM)	decrease in absorbance after 3 h ([3]; pH 6.0, RB5 67 μM)	decrease in absorbance after 3 h ([3]; pH 9.0, RB5 67 μM)	% bleaching [4, 12] [%]	% bleaching [4, 13] [%]	ΔAbs [4, 13]	% bleaching [5, 14] [%]	ΔAbs [5, 14]	% bleaching [5, 15] [%]	Compound	also measured
48	0.78	20	0.33	40	0.66	50	0.82	6	2	0.14	0.37	0.32	0.24	35	80	1.03	65	0.92	29	O=C(O)CCN1c2ccccc2Sc2ccccc21 [PTP, reference compound]	
33	0.50	60	0.98	83	1.26	60	0.91	18	10	0.34	0.30	0.48	0.26	64	76	1.01	78	1.09	43	O=C(O)CCN1c2ccccc2Sc2cccnc21 [Enhancer 4-aza-PTP, 10-(pyrido[3,2-b][1,4]benzothiazyl)propionic acid]	enhancing capabilities with laccase ([3]; summary of Examples 6-7): excellent enhancing capabilities; enhancing capabilities with peroxidase ([4]; summary of Examples 3-5, especially at lower concentrations (Example 5)): excellent enhancing capabilities
								12	20					63					31	O=C(O)CCN1c2ccccc2Sc2cnccc21 [Enhancer 2-aza-PTP, 10-(pyrido[3,4-b][1,4]benzothiazyl)propionic acid]	
